Reference: US7186710B2, “Phthalazinones” (Altana Pharma AG, priority 2001, dated 2007)

What was measured:
PDE7A1 = molecular target: T1, PDE7A1 (Homo sapiens, UniProt Q13946); assay: Inhibition of PDE7 activity, [3H]cAMP SPA enzyme assay with recombinant PDE7A1; assay type: biochemical; settings: recombinant PDE7A1 from SF21 insect cells, 0.5 μM cAMP; for IC50: read-out: PDE7 −logIC50 (converted)
T1 construct: made in house; host or cells: SF21 insect cells (baculovirus, pCRBac)
Description: (§1) Method for Measuring Inhibition of PDE4 and PDE7 Activities
(§2) The cDNA for PDE7A1 (Genebank Acc. No. L12052) was isolated, using RT-PCR, from total cellular RNA derived from the T cell line CCRF-CEM and cloned into the cloning vector pCR2.1 (invitrogen, Groningen, NL) under standard conditions (the manufacturer's instructions). For expression in insect cells, the cDNA was subcloned into the baculo expression vector pCRBac (invitrogen, Groningen, NL). The cDNA for PDE4D3 was a gift of Marco Conti (Stanford University, USA). The ORF (Genebank Acc. No. U50159) was cut from the original pCMV5 vector with the restriction enzymes EcoRI and XbaI and subcloned in the expression vector pBacPak9 (Clontech, Palo Alto).
(§3) The recombinant baculoylrus was prepared by means of homologous recombination in SF9 insect cells. The expression plasmids were cotransfected with Bac-N-Blue (invitrogen, Groningen, NL) or Baculo-Gold DNA (Pharmingen, Hamburg) using a standard protocol (Pharmingen, Hamburg). Wt virus-free recombinant virus supernatants were selected using plaque assay methods. After that, high-titre virus supernatants were prepared by amplifying 3 times. PDEs were expressed in SF21 cells by infecting 2×10^6 cells/ml with an MOI (multiplicity of infection) between 2 and 5 in serum-free SF900 medium (Life Technologies, Paisley, UK). The cells were cultured at 28° C. for 48 hours, after which they were pelleted for 5–10 min at 1000 g and 4° C. In the case of PDE7A1 cells were cultured in spinner flasks at a rotational speed of 75 rpm.
(§4) The SF21 insect cells were resuspended, at a concentration of approx. 10^7 cells/ml, in ice-cold (4° C.) homogenization buffer (20 mM Tris, pH 8.2, containing the following additions: 140 mM NaCl, 3.8 mM KCl, 1 mM EGTA, 1 mM MgCl2, 1 mM β-mercaptoethanol, 2 mM benzamidine, 0.4 mM Pefablock, 10 μM leupeptin, 10 μM pepstatin A, 5 μM trypsin inhibitor) and disrupted by ultrasonication. The homogenate was then centrifuged for 10 min at 1000×g and the supernatant was stored at −80° C. until subsequent use (see below). The protein content was determined by the Bradford method (BioRad, Munich) using BSA as the standard.
(§5) PDE7A1 and PDE4D3 activities were inhibited by the said compounds in a modified SPA (scintillation proximity assay) test, supplied by Amersham Pharmacia Biotech (see procedural instructions “phosphodiesterase [3H]cAMP SPA enzyme assay, code TRKQ 7090”), carried out in 96-well microtitre plates (MTP's). The test volume is 100 μl and contains 20 mM Tris buffer (pH 7.4), 0.1 mg of BSA (bovine serum albumin)/ml, 5 mM Mg^2+, 0.5 μM cAMP (including about 50,000 cpm of [3H]cAMP), 2 μl of the respective substance dilution in DMSO and sufficient recombinant PDE (1000×g supernatant, see above) to ensure that 15–20% of the cAMP is converted under the said experimental conditions. After a preincubation of 5 min at 37° C., the reaction is started by adding the substrate (cAMP) and the assays are incubated for a further 15 min; after that, they are stopped by adding SPA beads (50 μl). In accordance with the manufacturer's instructions, the SPA beads had preylously been resuspended in water and then diluted 1:3 (v/v); the diluted solution also contains 3 mM IBMX. After the beads have been sedimented (>30 min), the MTP's are analyzed in commercially available measuring appliances and the corresponding IC50 values of the compounds for the inhibition of PDE activities are determined from the concentration-effect curves by means of non-linear regression.

PDE4D3 = molecular target: T2, PDE4D3 (Homo sapiens, UniProt Q08499); assay: Inhibition of PDE4 activity, [3H]cAMP SPA enzyme assay with recombinant PDE4D3; assay type: biochemical; settings: recombinant PDE4D3 from SF21 insect cells, 0.5 μM cAMP; for IC50: read-out: PDE4 −logIC50 (converted)
T2 construct: made in house; host or cells: SF21 insect cells (baculovirus, pBacPak9)
Description: as §1, §2, §3, §4, §5

T1 sequence (Q13946 whole entry): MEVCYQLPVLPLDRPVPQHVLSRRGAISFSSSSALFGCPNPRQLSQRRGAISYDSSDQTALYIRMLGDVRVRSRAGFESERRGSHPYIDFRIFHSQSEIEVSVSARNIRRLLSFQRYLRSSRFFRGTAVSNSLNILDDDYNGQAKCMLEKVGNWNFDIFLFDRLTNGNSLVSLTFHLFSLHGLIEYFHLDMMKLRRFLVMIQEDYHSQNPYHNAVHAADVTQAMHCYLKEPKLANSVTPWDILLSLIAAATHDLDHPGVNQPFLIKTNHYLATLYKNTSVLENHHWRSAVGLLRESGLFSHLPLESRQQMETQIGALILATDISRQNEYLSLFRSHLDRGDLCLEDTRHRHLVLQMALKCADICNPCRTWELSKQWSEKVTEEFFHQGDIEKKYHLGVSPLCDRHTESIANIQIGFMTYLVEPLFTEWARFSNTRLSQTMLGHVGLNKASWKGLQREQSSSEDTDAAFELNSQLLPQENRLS
T2 sequence (Q08499 1-673 isoform Q08499-2): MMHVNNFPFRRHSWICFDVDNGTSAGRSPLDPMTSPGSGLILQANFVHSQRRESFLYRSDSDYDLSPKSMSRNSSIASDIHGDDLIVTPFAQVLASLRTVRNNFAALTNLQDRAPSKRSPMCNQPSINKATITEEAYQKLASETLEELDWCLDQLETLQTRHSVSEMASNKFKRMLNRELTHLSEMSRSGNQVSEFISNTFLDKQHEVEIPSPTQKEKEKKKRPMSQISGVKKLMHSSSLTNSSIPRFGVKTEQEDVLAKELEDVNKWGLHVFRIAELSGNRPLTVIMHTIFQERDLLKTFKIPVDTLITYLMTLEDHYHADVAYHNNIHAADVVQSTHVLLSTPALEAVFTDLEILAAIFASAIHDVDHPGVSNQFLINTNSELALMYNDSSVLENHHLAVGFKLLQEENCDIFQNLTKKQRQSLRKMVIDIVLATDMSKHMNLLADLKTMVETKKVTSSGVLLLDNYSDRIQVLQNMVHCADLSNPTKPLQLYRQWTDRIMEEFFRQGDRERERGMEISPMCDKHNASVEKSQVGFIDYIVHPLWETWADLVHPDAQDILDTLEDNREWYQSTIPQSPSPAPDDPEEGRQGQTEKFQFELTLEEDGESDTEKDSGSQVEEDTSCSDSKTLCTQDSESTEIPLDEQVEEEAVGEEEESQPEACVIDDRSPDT

Row | Compound | IC50 (PDE7A1) [nM] | IC50 (PDE4D3) [nM] | melting point | PDE7 −logIC50 (mol/l) (PDE7A1) | PDE4 −logIC50 (mol/l) (PDE4D3)
1 | COc1ccc(C2=NN(c3ccc(C(=O)N4CCN(CCN(C)C)CC4)cc3)C(=O)[C@H]3CC=CC[C@@H]23)cc1Cl.Cl.Cl (relative stereo) [Compound 5, (cis)-4-(3-Chloro-4-methoxy-phenyl)-2-(4-{1-[4-(2-dimethylamino-ethyl)-piperazin-1-yl]-methanoyl}-phenyl)-4a,5,8,8a-tetrahydro-2H-phthalazin-1-one dihydrochloride] | 66.1 | 13.8 | 198 to 201 °C |  | 
2 | COc1ccc(C2=NN(c3nc(C)ccc3C(F)(F)F)C(=O)[C@H]3CC=CC[C@@H]23)cc1Cl (relative stereo) [Compound 6] |  |  |  | 7.08 | 7.64
3 | COc1ccc(C2=NN(c3ccc4ncsc4c3)C(=O)[C@@H]3CC=CC[C@H]23)cc1Cl (relative stereo) [Compound 7, (cis)-2-Benzothiazol-6-yl-4-(3-chloro-4-methoxy-phenyl)-4a,8,8a-tetrahydro-2H-phthalazin-1-one] | 105 | 8.13 | 156 to 157 °C |  | 
4 | COc1ccc(C2=NN(c3ccc4c(c3)COC4=O)C(=O)[C@H]3CC=CC[C@@H]23)cc1Cl (relative stereo) [Compound 8, (cis)-4-(3-Chloro-4-methoxy-phenyl)-2-(1-oxo-1,3-dihydro-isobenzofuran-5-yl)-4a,5,8,8a-tetrahydro-2H-phthalazin-1-one] | 89.1 | 8.91 | 212 to 213 °C |  | 
5 | COc1ccc(C2=NN(c3ccc4[nH]ncc4c3)C(=O)[C@H]3CC=CC[C@@H]23)cc1Cl.Cl (relative stereo) [Compound 9, (cis)-4-(3-Chloro-4-methoxy-phenyl)-2-(1H-indazol-5-yl)-4a,5,8,8a-tetrahydro-2H-phthalazin-1-one hydrochloride] | 28.8 | 2.57 | 196 to 197 °C |  | 
6 | COc1ccc(C2=NN(CCCCn3ccnc3)C(=O)[C@H]3CC=CC[C@@H]23)cc1Cl.Cl (relative stereo) [Compound 11, (cis)-4-(3-Chloro-4-methoxy-phenyl)-2-(4-imidazol-1-yl-butyl)-4a,5,8,8a-tetrahydro-2H-phthalazin-1-one hydrochloride] | 269 | 0.891 | 217 to 219 °C |  | 
7 | COc1ccc(C2=NN(CCCCOc3ccc(C(=O)O)cc3)C(=O)[C@H]3CC=CC[C@@H]23)cc1Cl (relative stereo) [Compound 12, (cis)-4-{4-[4-(3-Chloro-4-methoxy-phenyl)-1-oxo-4a,5,8,8a-tetrahydro-1H-phthalazin-2-yl]-butoxy}benzoic acid] | 97.7 | 6.46 | 169 to 171 °C |  | 
8 | COc1ccc(C2=NN(c3ccc(C(=O)O)cc3)C(=O)[C@H]3CC=CC[C@@H]23)cc1F (relative stereo) [Compound 13, (cis)-4-[4-(3-Fluoro-4-methoxy-phenyl)-1-oxo-4a,5,8,8a-tetrahydro-1H-phthalazin-2-yl]-benzoic acid] | 380 | 45.7 | 201 to 203 °C |  | 
9 | COc1ccc(C2=NN(c3ccc(C(=O)O)cc3)C(=O)[C@H]3CC=CC[C@@H]23)cc1Cl (relative stereo) [Compound 14, (cis)-4-{4-(3-chloro-4-methoxyphenyl)-1-oxo-4a,5,8,8a-tetrahydro-1H-phthalazin-2-yl}-benzoic acid] |  |  | 222 to 224 °C |  | 
10 | COc1ccc(C2=NN(c3cc(C)c4c(C)nn(C)c4n3)C(=O)[C@H]3CC=CC[C@@H]23)cc1Cl (relative stereo) [Compound 17, (cis)-4-(3-Chloro-4-methoxy-phenyl)-2-(1,3,4-trimethyl-1H-pyrazolo[3,4-b]pyridin-6-yl)-4a,5,8,8a-tetrahydro-2H-phthalazin-1-one] | 41.7 | 21.9 |  |  | 
11 | COc1ccc(C2=NN(c3nc(-c4cccs4)ns3)C(=O)[C@H]3CC=CC[C@@H]23)cc1Cl (relative stereo) [Compound 18, (cis)-4-(3-Chloro-4-methoxy-phenyl)-2-(3-thiophen-2-yl-[1,2,4]thiadiazol-5-yl)-4a,5,8,8a-tetrahydro-2H-phthalazin-1-one] | 77.6 | 23.4 |  |  | 

Now from value to compound:

Row | IC50 (PDE7A1) [nM] | IC50 (PDE4D3) [nM] | melting point | PDE7 −logIC50 (mol/l) (PDE7A1) | PDE4 −logIC50 (mol/l) (PDE4D3) | Compound
12 | 22.9 | 2.29 |  |  |  | COc1ccc(C2=NN(C3CCN(C(=O)N4CCOCC4)CC3)C(=O)[C@H]3CC=CC[C@@H]23)cc1Cl (relative stereo) [Compound 1, (cis)-4-(3-Chloro-4-methoxy-phenyl)-2-[1-(1-morpholin-4-yl-methanoyl)-piperidin-4-yl]-4a,5,8,8a-tetrahydro-2H-phthalazin-1-one]
13 | 107 | 3.98 | 198 to 199 °C |  |  | COc1ccc(C2=NN(C3CCN(S(=O)(=O)c4ccc(C)cc4)CC3)C(=O)[C@H]3CC=CC[C@@H]23)cc1Cl (relative stereo) [Compound 2, (cis)-4-(3-Chloro-4-methoxy-phenyl)-2-[1-(toluene-4-sulfonyl)-piperidin-4-yl]-4a,5,8,8a-tetrahydro-2H-phthalazin-1-one]
14 | 182 | 5.62 | 206 to 208 °C |  |  | COc1ccc(C2=NN(C3CCN(C(C)=O)CC3)C(=O)[C@@H]3CC=CC[C@H]23)cc1Cl (relative stereo) [Compound 3, (cis)-2-(1-Acetyl-piperidin-4-yl)-4-(3-chloro-4-methoxy-phenyl)-4a,5.8,8a-tetrahydro-2H-phthalazin-1-one]
15 | 41.7 | 2.45 | 244 °C (dec.) |  |  | COc1ccc(C2=NN(C3CCN(Cc4ccncc4)CC3)C(=O)[C@H]3CC=CC[C@@H]23)cc1Cl.Cl (relative stereo) [Compound 4, (cis)-4-(3-Chloro-4-methoxy-phenyl)-2-(1-pyridin-4-ylmethyl-piperidin-4-yl)-4a,5,8,8a-tetrahydro-2H-phthalazin-1-one hydrochloride]
16 | 18.6 | 0.776 |  |  |  | COc1ccc(C2=NN(C3CCCC3)C(=O)[C@H]3CC=CC[C@@H]23)cc1Cl (relative stereo) [Compound 10, (cis)-4-(3Chloro-4-methoxy-phenyl)-2-cyclopentyl-4a,5,8,8a-tetrahydro-2H-phthalazin-1-one]
17 |  |  | 216 to 218 °C |  |  | COc1ccc(C2=NN(C3CCN(C(=O)N4CCNC4=O)CC3)C(=O)[C@H]3CC=CC[C@@H]23)cc1Cl (relative stereo) [Compound 22, cis-4-(3-Chloro-4-methoxy-phenyl)-2-{1-[1-(2-oxo-imidazolidin-1-yl)-methanoyl]-piperidin-4-yl}-4a,5,8,8a-tetrahydro-2H-phthalazin-1-one]
